Results taken from US20050158775A1, “Novel plamid DNA comprising reoprter gene DNA and use of the same” (priority 1997, published 2005).

Experiments:
[1] = biological target: T1, Gal4-human PPAR α chimeric receptor protein (Homo sapiens, UniProt Q07869); format: cell-based
T1 construct: the 167th serine (Ser) to the 468th tyrosine (Tyr) of the human PPAR α receptor; expressed in transfected cells
T1 sequence (Q07869 167-468): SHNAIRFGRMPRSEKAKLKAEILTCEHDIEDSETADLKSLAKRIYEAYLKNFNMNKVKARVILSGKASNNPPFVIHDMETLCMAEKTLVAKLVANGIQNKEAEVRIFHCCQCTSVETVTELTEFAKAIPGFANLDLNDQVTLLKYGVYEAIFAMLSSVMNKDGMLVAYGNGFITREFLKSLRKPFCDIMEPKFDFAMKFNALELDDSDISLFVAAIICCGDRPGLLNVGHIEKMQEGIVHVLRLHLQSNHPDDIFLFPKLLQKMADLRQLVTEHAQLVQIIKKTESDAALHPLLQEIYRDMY

[2] = biological target: T2, Gal4-human PPAR γ chimeric receptor protein (Homo sapiens, UniProt P37231)
T2 sequence (P37231 176-477 isoform P37231-2): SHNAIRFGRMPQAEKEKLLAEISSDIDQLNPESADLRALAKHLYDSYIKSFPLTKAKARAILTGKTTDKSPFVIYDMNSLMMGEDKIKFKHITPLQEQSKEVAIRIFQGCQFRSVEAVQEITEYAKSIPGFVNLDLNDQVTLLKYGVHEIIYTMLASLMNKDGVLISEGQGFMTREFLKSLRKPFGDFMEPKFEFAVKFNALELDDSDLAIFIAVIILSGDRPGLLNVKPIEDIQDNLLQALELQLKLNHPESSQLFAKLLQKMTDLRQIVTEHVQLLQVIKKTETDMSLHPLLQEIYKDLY

[3] = biological target: T3, Gal4-human PPAR δ chimeric receptor protein (Homo sapiens, UniProt Q03181); format: cell-based
T3 construct: the 139th serine (Ser) to the 441st tyrosine (Tyr) of the human PPAR δ receptor; expressed in transfected cells
T3 sequence (Q03181 139-441): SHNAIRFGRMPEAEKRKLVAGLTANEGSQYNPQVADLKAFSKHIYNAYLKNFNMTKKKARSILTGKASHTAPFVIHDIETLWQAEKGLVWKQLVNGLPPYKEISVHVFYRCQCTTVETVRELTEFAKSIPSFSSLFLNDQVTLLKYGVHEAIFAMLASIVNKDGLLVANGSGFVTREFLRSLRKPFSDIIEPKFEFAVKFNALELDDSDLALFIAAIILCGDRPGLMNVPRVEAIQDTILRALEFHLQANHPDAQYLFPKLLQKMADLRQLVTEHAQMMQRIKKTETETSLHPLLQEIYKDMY

Cc1cccc(Nc2cc(Cl)nc(SCC(=O)O)n2)c1C [Wy-14643]
cell death of PPAR α ligand-responsive cells [1]: cause dose-dependent cell death
cell death of PPAR γ ligand-responsive cells [2]: do not cause cell death

CCCCCC#CCC#CCC#CCC#CCCCC(=O)O [ETYA]
cell death of PPAR α ligand-responsive cells [1]: cause dose-dependent cell death
cell death of PPAR δ ligand-responsive cells [3]: do not cause cell death
